Laboratory results from article PMC12469269, “Investigating SMR Peptide Interactions with Breast Cancer-Associated Proteins” (International Journal of Molecular Sciences, 2025).
pKd: −log10 of the molar value. Where no end group is shown, it is not given here.

Key:
MDA-MB-231 cells = assay: Tumor exosome secretion, Mortalin scanning peptides (Figure 5B), MDA-MB-231; type: cell-based, human; conditions: 50 ng / 200 μL peptide, transfected, 48 h, N-Rh-PE fluorescence in media; SMRmut = 100; mean of three independent experiments
Method: (§1) Figure 5 Effects of Mortalin-derived peptides on inhibition of exNef and tumor exosome secretion. (A) Jurkat T cells were co-transfected with 250 ng of wild-type Nef-GFP plasmid and 50 ng of Mortalin-derived scanning peptides (#56–#67), including SMRwt and SMRmut as positive and negative controls. After 48 h, GFP fluorescence in culture media was measured to assess exNef secretion. Data represent mean ± SD from three independent experiments. Statistical significance was determined using a two-sample t-test assuming equal variances. (B) MDA-MB-231 cells were transfected with 50 ng of Mortalin-derived scanning peptides (#56–#67), including SMRwt and SMRmut controls. Cells were labeled with N-Rh-PE and incubated for 48 h. N-Rh-PE fluorescence in culture media was measured to assess exosome secretion. Data represent mean ± SD from three independent experiments. Statistical significance was determined using a two-sample t-test assuming equal variances. TEXT PRINTED IN THE PICTURE: (A) #56: Jurkat GFP (%): 117.84 (50 ng / 200 μL) | (A) #57: Jurkat GFP (%): 96.69 (50 ng / 200 μL) | (A) #58: Jurkat GFP (%): 91.89 (50 ng / 200 μL) | (A) #59: Jurkat GFP (%): 95.49 (50 ng / 200 μL) | (A) #60: Jurkat GFP (%): 98.25 (50 ng / 200 μL) | (A) #61: Jurkat GFP (%): 0.65 (50 ng / 200 μL) | (A) #62: Jurkat GFP (%): 0.51 (50 ng / 200 μL) | (A) #63: Jurkat GFP (%): 98.02 (50 ng / 200 μL) | (A) #64: Jurkat GFP (%): 95.37 (50 ng / 200 μL) | (A) #65: Jurkat GFP (%): 96.34 (50 ng / 200 μL) | (A) #66: Jurkat GFP (%): 92.28 (50 ng / 200 μL) | (A) #67: Jurkat GFP (%): 99.56 (50 ng / 200 μL) | (A) SMRwt: Jurkat GFP (%): 0.51 (50 ng / 200 μL) | (A) SMRmut: Jurkat GFP (%): 100 (50 ng / 200 μL) | (B) #56: MDA-MB-231 N-Rh-PE (%): 66.31 (50 ng / 200 μL) | (B) #57: MDA-MB-231 N-Rh-PE (%): 79.73 (50 ng / 200 μL) | (B) #58: MDA-MB-231 N-Rh-PE (%): 68.11 (50 ng / 200 μL) | (B) #59: MDA-MB-231 N-Rh-PE (%): 67.81 (50 ng / 200 μL) | (B) #60: MDA-MB-231 N-Rh-PE (%): 72.32 (50 ng / 200 μL) | (B) #61: MDA-MB-231 N-Rh-PE (%): 7.53 (50 ng / 200 μL) | (B) #62: MDA-MB-231 N-Rh-PE (%): 5.36 (50 ng / 200 μL) | (B) #63: MDA-MB-231 N-Rh-PE (%): 75.39 (50 ng / 200 μL) | (B) #64: MDA-MB-231 N-Rh-PE (%): 73.49 (50 ng / 200 μL) | (B) #65: MDA-MB-231 N-Rh-PE (%): 81.65 (50 ng / 200 μL) | (B) #66: MDA-MB-231 N-Rh-PE (%): 81.79 (50 ng / 200 μL) | (B) #67: MDA-MB-231 N-Rh-PE (%): 89.82 (50 ng / 200 μL) | (B) SMRwt: MDA-MB-231 N-Rh-PE (%): 6.11 (50 ng / 200 μL) | (B) SMRmut: MDA-MB-231 N-Rh-PE (%): 100 (50 ng / 200 μL)
To assess the effect of Mortalin-derived peptides on tumor exosome secretion, MDA-MB-231 breast cancer cells were transfected with the same panel of scanning peptides and labeled with N-Rh-PE to track exosome release. Following incubation, N-Rh-PE fluorescence in the culture media was measured as a proxy for extracellular exosome levels. SMRwt and SMRmut peptides were again used as controls. […] Statistical analysis confirmed significant differences: SMRmut vs. #61 (p < 7.20 × 10^−7), SMRmut vs. #62 (p < 5.70 × 10^−7), and SMRmut vs. SMRwt (p < 5.96 × 10^−7).

Jurkat T cells = assay: exNef secretion, Mortalin scanning peptides (Figure 5A), Jurkat T cells; type: cell-based; conditions: 50 ng / 200 μL peptide, 250 ng Nef-GFP plasmid, 48 h, GFP fluorescence in media; SMRmut = 100; mean of three independent experiments
Method: To determine whether Mortalin-derived peptides can inhibit the secretion of extracellular Nef (exNef), Jurkat T cells were co-transfected with wild-type Nef-GFP and various scanning peptides derived from the substrate-binding domain of Mortalin (#56–#67). SMRwt and SMRmut peptides were included as positive and negative controls, respectively. After 48 h of incubation, GFP fluorescence in the culture media was measured as a proxy for exNef secretion.
as §1
To identify peptide sequences within Mortalin that modulate extracellular vesicle (EV) secretion, a panel of scanning peptides was synthesized and tested in Jurkat T cells. The peptides, listed in Table 1, were custom-synthesized with an average purity of 75% and used in transfection assays to evaluate their impact on EV release. Jurkat T cells (3 × 10^5) were co-transfected with 50 ng of individual Mortalin peptides […] 250 ng of wild-type Nef-GFP plasmid using Chariot™ transfection reagent. Transfection efficiency was confirmed by fluorescence microscopy after 48 h. EV secretion was assessed by measuring GFP fluorescence in the culture media, and statistical analysis was performed using unpaired two-factor t-tests (p < 0.05). Panel of Mortalin scanning peptides developed and tested for their effect EV secretion and Table S2. Mortalin Scanning Peptides Used in Transfection Assays, see the Supplementary Information. […]

Nef protein = Nef protein (Human immunodeficiency virus type 1 group M subtype B, UniProt P03404); assay: SPR binding of Mortalin peptides to immobilized Nef; design: species or system HIV-1; conditions: for kon: pH 7.4, read-out: ka (Nef)
Method: Figure 8 depicts the SPR results for Mortalin peptides binding to Nef. The Nef protein was immobilized as a ligand on the chip surface, and the peptides were used as analytes to flow into the buffer solution.
(§2) SPR experiments were conducted using a Biacore T200 instrument (Cytiva, Marlborough, MA, USA). CM5 sensor chips (Cytiva) were used to immobilize proteins and run subsequent binding assays at 25 °C. To investigate the direct binding of Nef and SMR peptides to Vimentin and Mortalin and SMR competition studies, both proteins were immobilized as ligands on the active flow cells (FCs) using standard amine coupling chemistry. One reference FC was prepared using the same surface chemistry, and no proteins were immobilized onto this reference FC. Vimentin was immobilized to a level of ~2500 RU to 7200 RU in the presence of 4 mM of HCl and Mortalin to a level of ~11,900 RU to 13,200 RU in the presence of 10 mM of sodium acetate buffer at pH 4.5. Analytes were then injected (Nef, SMR peptides, Mortalin peptides, and mixtures of […]). One 20 s pulse of 1:500 H3PO4 (H3PO4:ddH2O) was injected for surface regeneration. To investigate the direct binding of Mortalin peptides to Nef, Nef was immobilized as a ligand to ~450 RU using thiol coupling chemistry. A reference FC was created using a method similar to the one above. Mortalin peptides were then injected as analytes. One 20 s pulse of 1 M NaCl was injected for surface regeneration. HBS-P (10 mM Hepes, pH 7.4; 150 mM NaCl; 0.05% surfactant P20) was used as the immobilization running buffer during the immobilization of all ligands. HBS-P was also used to dilute analytes and as a running buffer during all analyte–ligand binding assays. SPR data used for analysis was both blank (signals due to HBS-P only) and reference-subtracted (signals corresponding to reference FCs). Sensorgrams recorded for kinetics analyses were fitted to a 1:1 binding model using the Biacore T200 evaluation software version 3.2.1. GraphPad Prism version 10.4.0 was used to plot all graphs.

MDA-MB-231 BC cells = assay: Exosome secretion by N-Rh-PE (Figure 4A), MDA-MB-231; type: cell-based, human; conditions: 100 ng/mL peptide, 24 h, no transfection, N-Rh-PE fluorescence, three independent experiments
Method: (§3) Figure 4 Effects of SMR, Mortalin, and Vimentin peptides on tumor cell exosome secretion in MDA-MB-231 and MCF-7 breast cancer cells. MDA-MB-231 and MCF-7 BC cells (200 µL, 1 × 10^4 cells/mL) were seeded into a 96-well plate and treated with 100 ng/mL of either wild-type (wt) or mutant (mut) peptides of SMR, Mortalin, or Vimentin. Treatments were performed in RPMI-1640 medium without transfection, and cells were incubated at 37 °C for 24 h. The cells were then treated with 0.5 µM/mL of N-Rh-PE, incubated at 4 °C for 1 h, and washed with PBS. Fresh medium was also added. The cultures were incubated at 37 °C for an additional 24 h. N-Rh-PE refers to N-(Lissamine Rhodamine B sulfonyl) phosphatidyl-ethanolamine, a fluorescent lipid dye commonly used to label membranes and track vesicle trafficking. […] Exosome secretion was assessed by measuring the amount of N-Rh-PE, which corresponds to the number of exosomes released into the extracellular medium. Bar graphs show the relative exosome release level. Data represent the mean ± SD of three independent experiments.

MCF-7 BC cells = assay: Exosome secretion by N-Rh-PE (Figure 4B), MCF-7; type: cell-based, human; conditions: 100 ng/mL peptide, 24 h, no transfection, N-Rh-PE fluorescence, three independent experiments
Method: as §3

[1] = target: T1, Recombinant Human Vimentin Protein (Homo sapiens, UniProt P08670); assay: biochemical; type: binding
T1 construct: purchased Novus Biologicals, LLC/R&D Systems 2105-VI-100
T1 sequence (P08670 whole entry): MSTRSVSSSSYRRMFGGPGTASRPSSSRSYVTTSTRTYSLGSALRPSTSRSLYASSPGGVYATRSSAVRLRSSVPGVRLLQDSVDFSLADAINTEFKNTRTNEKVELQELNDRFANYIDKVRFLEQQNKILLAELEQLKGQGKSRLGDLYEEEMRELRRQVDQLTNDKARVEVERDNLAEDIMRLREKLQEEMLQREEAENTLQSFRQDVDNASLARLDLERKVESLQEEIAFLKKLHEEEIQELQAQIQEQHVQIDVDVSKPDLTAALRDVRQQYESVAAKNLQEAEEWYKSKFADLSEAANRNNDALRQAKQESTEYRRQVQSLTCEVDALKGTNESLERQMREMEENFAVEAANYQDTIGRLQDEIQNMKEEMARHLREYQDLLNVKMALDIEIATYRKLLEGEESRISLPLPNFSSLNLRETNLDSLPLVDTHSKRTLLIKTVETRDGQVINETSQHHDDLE
From the text: (§4) We conducted SPR experiments to characterize and quantify the direct binding interactions between Nef and SMR peptides (the analytes) and the target proteins, Vimentin and Mortalin (the immobilized ligands). We did so by injecting the analytes at various concentrations over the chip surface with the immobilized ligands.
(§5) Recombinant Human Vimentin Protein, CF (catalog # 2105-VI-100), Recombinant Human GRP75/HSPA9B/Mortalin His Protein (catalog # NBC1-18380), and Recombinant Human HSPA8/HSC71/Hsc70 His Protein (Catalog # NBPI-30278) were purchased from Novus Biologicals, LLC/R&D Systems, Centennial, CO, USA. These proteins were used for SPR.
as §2

[2] = target: T2, Recombinant Human GRP75/HSPA9B/Mortalin His Protein (Homo sapiens, UniProt P38646); assay: biochemical; type: binding
T2 construct: His; purchased Novus Biologicals, LLC/R&D Systems NBC1-18380
T2 sequence (P38646 47-679): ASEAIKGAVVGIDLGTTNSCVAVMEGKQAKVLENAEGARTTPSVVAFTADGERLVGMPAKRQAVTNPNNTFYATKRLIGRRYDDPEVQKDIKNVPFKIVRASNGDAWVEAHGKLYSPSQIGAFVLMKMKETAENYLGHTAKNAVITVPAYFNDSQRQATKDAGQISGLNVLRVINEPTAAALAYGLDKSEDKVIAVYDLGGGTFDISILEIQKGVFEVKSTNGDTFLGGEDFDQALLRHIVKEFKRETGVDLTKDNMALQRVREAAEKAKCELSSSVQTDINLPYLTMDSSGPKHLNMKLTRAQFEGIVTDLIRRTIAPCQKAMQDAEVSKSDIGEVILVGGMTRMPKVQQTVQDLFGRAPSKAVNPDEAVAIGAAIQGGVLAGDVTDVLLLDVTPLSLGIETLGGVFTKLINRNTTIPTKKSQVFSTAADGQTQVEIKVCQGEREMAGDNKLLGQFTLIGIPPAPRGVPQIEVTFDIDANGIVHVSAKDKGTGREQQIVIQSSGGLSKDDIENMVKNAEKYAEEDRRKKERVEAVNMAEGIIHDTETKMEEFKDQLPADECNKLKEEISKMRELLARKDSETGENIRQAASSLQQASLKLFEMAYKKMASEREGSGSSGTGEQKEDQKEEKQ
From the text: as §4, §5, §2

Substance	MDA-MB-231 N-Rh-PE (exosome secretion) (MDA-MB-231 cells) [%]	Jurkat GFP (exNef secretion) (Jurkat T cells) [%]	also measured
AVNMAEGIIHDTETKMEEFK [#59, Mortalin scanning peptide 59]	67.81	95.49	
AYKKMASEREGSGSSGTGEQ [#66, Mortalin scanning peptide 66]	81.79	92.28	
DTETKMEEFKDQLPADECNK [#60, Mortalin scanning peptide 60]	72.32	98.25	
EDRRKKERVEAVNMAEGIIH [#58, Mortalin scanning peptide 58]	68.11	91.89	
ENIRQAASSLQOASLKLFEM [#64, Mortalin scanning peptide 64]	73.49	95.37	
GGLSKDDIENMVKNAEKYAE [#56]			pKd (Nef protein): 4.11; kon (Nef protein): 370 M⁻¹ s⁻¹
GSGSSGTGEQKEDQKEEKQ [#67, Mortalin scanning peptide 67]	89.82	99.56	
LKEEISKMRELLARKDSETG [#62]			pKd (Nef protein): 5.72; kon (Nef protein): 1970 M⁻¹ s⁻¹
LLARKDSETGENIRQAASSL [#63, Mortalin scanning peptide 63]	75.39	98.02	
LYEEEMRE [VIM-wt, Vimentin-wt peptide (LYEEEMRE)]			exosome release vs untreated, in words (MDA-MB-231 BC cells): significantly decreased exosome release; p, UT vs. peptide, exosome release (MDA-MB-231 BC cells): < 0.00005; exosome release vs untreated, in words (MCF-7 BC cells): significantly decreased exosome release; p, UT vs. peptide, exosome release (MCF-7 BC cells): < 0.00005
MVKNAEKYAEEDRRKKERVE [#57, Mortalin scanning peptide 57]	79.73	96.69	
QOASLKLFEMAYKKMASERE [#65, Mortalin scanning peptide 65]	81.65	96.34	
VGFPV [SMRwt, ^66Val-Gly-Phe-Pro-Val^70]			pKd [1]: 5.18; kon ([1]; pH 7.4, read-out: ka (Vimentin)): 6410 M⁻¹ s⁻¹; pKd [2]: 4.68; kon ([2]; pH 7.4, read-out: ka (Mortalin)): 671 M⁻¹ s⁻¹
